Experiments:
[1] = system: jejunal mucosal 5-HT in mice (C57 BL6); experiment: Reduction of mucosal 5-HT concentrations (Example C, repeated oral dosing); type: in vivo, mouse; settings: P-value class
Description: The efficacy of the TPH1 inhibitors of the invention was assessed for the ability to decrease intestinal serotonin concentration in mice. Mice (C57 BL6) were administered an oral dose of 10 or 50 mg/kg of the test article in the evening. […] Following an overnight fast, each animal was euthanized by exsanguination under isoflurane anesthesia. Jejunal intestinal mucosa was isolated and homogenized in […] of a buffer containing 0.3M trichloroacetic acid, 0.1M sodium acetate, 10 mM EDTA, 20 mM sodium bisulfate and 50 mM ascorbic acid. Following centrifugation the 5-HT levels in the supernatants were measured by HPLC. The remaining mucosal pellet was solubilized overnight at 37° C. in a 0.1% sodium dodecyl sulfate buffer in 0.1N NaOH followed by determination of protein concentrations using a BCA protein assay (Pierce, Rockford, Ill.). 5-HT levels were normalized to protein and data were expressed as mean percent reduction of mucosal 5-HT levels relative to vehicle control±SEM (percent 5-HT reduction). All animal studies were carried out with protocols approved by the Institutional Animal Care and Use Committee. P-values, indicating statistical significance of the data (ANOVA) are provided in the table: * refers to P<0.05,** refers to P<0.01, *** refers to P<0.005, and **** refers to P<0.0005.

[2] = system: jejunal mucosal 5-HT in mice (C57 BL6); experiment: Intestinal 5-HT depletion assay (Example B, single 150 mg/kg oral dose); type: in vivo, mouse; settings: one day after oral administration of a single 150 mg/kg dose, P-value class (ANOVA)
Summary of the method: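 C57 BL6 mice received one 150 mg/kg oral gavage dose; jejunal mucosa was homogenized in acidic trichloroacetic acid buffer and 5-HT measured by HPLC. Levels normalized to BCA protein, expressed as mean percent reduction versus vehicle ± SEM; ANOVA significance.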

[3] = after three oral doses (first 10 or 50 mg/kg, then two doses of 50 mg/kg) (title)

Molecule: CCOC(=O)[C@@H]1CC2(CCN(c3cc(O[C@H](c4ccc(Cl)cc4-c4cccc(C)c4)C(F)(F)F)nc(N)n3)CC2)CN1 [Example 63aq, (S)-ethyl 8-(2-amino-6-((R)-1-(5-chloro-3′-methyl-[1,1′-biphenyl]-2-yl)-2,2,2-trifluoroethoxy)pyrimidin-4-yl)-2,8-diazaspiro[4.5]decane-3-carboxylate]
- Efficacy (statistical significance of reduction of mucosal 5-HT concentrations relative to vehicle) [1, 3]: *** (*** refers to P<0.005)

Molecule: CCOC(=O)[C@@H]1CC2(CCN(c3cc(O[C@H](c4ccc(Cl)cc4-c4cccc(C(F)(F)F)c4)C(F)(F)F)nc(N)n3)CC2)CN1 [Example 63ar, (S)-ethyl 8-(2-amino-6-((R)-1-(5-chloro-3′-(trifluoromethyl)-[1,1′-biphenyl]-2-yl)-2,2,2-trifluoroethoxy)pyrimidin-4-yl)-2,8-diazaspiro[4.5]decane-3-carboxylate]
- Efficacy (statistical significance of reduction of mucosal 5-HT concentrations relative to vehicle) [1, 3]: **** (**** refers to P<0.0005)

Molecule: CCOC(=O)[C@@H]1CC2(CCN(c3cc(O[C@H](c4ccc(-c5ccc(Cl)c(Cl)c5)cc4-n4ccc(C)n4)C(F)(F)F)nc(N)n3)CC2)CN1 [Example 63aw, (S)-ethyl 8-(2-amino-6-((R)-1-(3′,4′-dichloro-3-(3-methyl-1H-pyrazol-1-yl)-[1,1′-biphenyl]-4-yl)-2,2,2-trifluoroethoxy)pyrimidin-4-yl)-2,8-diazaspiro[4.5]decane-3-carboxylate]
- Efficacy (statistical significance of reduction of mucosal 5-HT concentrations relative to vehicle) [1, 3]: **** (**** refers to P<0.0005)

Molecule: CCOC(=O)[C@@H]1CC2(CCN(c3cc(O[C@H](c4ccc(Cl)cc4-n4ccc(C)n4)C(F)(F)F)nc(N)n3)CC2)CN1 [Example 63az, (S)-ethyl 8-(2-amino-6-((R)-1-(4-chloro-2-(3-methyl-1H-pyrazol-1-yl)phenyl)-2,2,2-trifluoroethoxy)pyrimidin-4-yl)-2,8-diazaspiro[4.5]decane-3-carboxylate]
- Efficacy (statistical significance of reduction of mucosal 5-HT concentrations relative to vehicle) [2]: *** (*** refers to P<0.005)
- Efficacy (statistical significance of reduction of mucosal 5-HT concentrations relative to vehicle) [1, 3]: *** (*** refers to P<0.005)

Molecule: CCOC(=O)[C@@H]1CC2(CCN(c3cc(O[C@H](c4ccc(-c5ccc(C)c(C)c5)cc4-n4ccc(C)n4)C(F)(F)F)nc(N)n3)CC2)CN1 [Example 63bd, (S)-ethyl 8-(2-amino-6-((R)-1-(3′,4′-dimethyl-3-(3-methyl-1H-pyrazol-1-yl)-[1,1′-biphenyl]-4-yl)-2,2,2-trifluoroethoxy)pyrimidin-4-yl)-2,8-diazaspiro[4.5]decane-3-carboxylate]
- Efficacy (statistical significance of reduction of mucosal 5-HT concentrations relative to vehicle) [2]: *** (*** refers to P<0.005)
- Efficacy (statistical significance of reduction of mucosal 5-HT concentrations relative to vehicle) [1, 3]: *** (*** refers to P<0.005)

Molecule: CCCc1ccc([C@@H](Oc2cc(N3CCC4(CC3)CN[C@H](C(=O)OCC)C4)nc(N)n2)C(F)(F)F)c(-n2ccc(C)n2)c1 [Example 63bf, (S)-ethyl 8-(2-amino-6-((R)-2,2,2-trifluoro-1-(2-(3-methyl-1H-pyrazol-1-yl)-4-propylphenyl)ethoxy)pyrimidin-4-yl)-2,8-diazaspiro[4.5]decane-3-carboxylate]
- Efficacy (statistical significance of reduction of mucosal 5-HT concentrations relative to vehicle) [2]: **** (and refers to P<0.0005)
- Efficacy (statistical significance of reduction of mucosal 5-HT concentrations relative to vehicle) [1, 3]: *** (*** refers to P<0.005)

Molecule: CCOC(=O)[C@@H]1CC2(CCN(c3cc(O[C@H](c4ccc(-c5ccc(OC(C)C)cc5)cc4-n4ccc(C)n4)C(F)(F)F)nc(N)n3)CC2)CN1 [Example 63cn, (S)-ethyl 8-(2-amino-6-((R)-2,2,2-trifluoro-1-(4′-isopropoxy-3-(3-methyl-1H-pyrazol-1-yl)-[1,1′-biphenyl]-4-yl)ethoxy)pyrimidin-4-yl)-2,8-diazaspiro[4.5]decane-3-carboxylate]
- Efficacy (statistical significance of reduction of mucosal 5-HT concentrations relative to vehicle) [1, 3]: **** (**** refers to P<0.0005)

Molecule: CCOC(=O)[C@@H]1CC2(CCN(c3cc(O[C@H](c4ccc(Cl)cc4-c4cccc(C(C)(C)C)c4)C(F)(F)F)nc(N)n3)CC2)CN1 [Example 63el, (S)-ethyl 8-(2-amino-6-((R)-1-(3′-(tert-butyl)-5-chloro-[1,1 biphenyl]-2-yl)-2,2,2-trifluoroethoxy)pyrimidin-4-yl)-2,8-diazaspiro[4.5]decane-3-carboxylate]
- Efficacy (statistical significance of reduction of mucosal 5-HT concentrations relative to vehicle) [1, 3]: *** (*** refers to P<0.005)

Molecule: CCOC(=O)[C@@H]1CC2(CCN(c3cc(O[C@H](c4ccccc4-c4cccc(Cl)c4)C(F)(F)F)nc(N)n3)CC2)CN1 [Example 63eo, (S)-ethyl 8-(2-amino-6-((R)-1-(3′-chloro-[1,1′-biphenyl]-2-yl)-2,2,2-trifluoroethoxy)pyrimidin-4-yl)-2,8-diazaspiro[4.5]decane-3-carboxylate]
- Efficacy (statistical significance of reduction of mucosal 5-HT concentrations relative to vehicle) [1, 3]: *** (*** refers to P<0.005)

Molecule: CCOC(=O)[C@@H]1CC2(CCN(c3cc(O[C@H](c4ccc(Cl)cc4-c4cccc(OC)c4)C(F)(F)F)nc(N)n3)CC2)CN1 [Example 63ep, (S)-ethyl 8-(2-amino-6-((R)-1-(5-chloro-3′-methoxy-[1,1′-biphenyl]-2-yl)-2,2,2-trifluoroethoxy)pyrimidin-4-yl)-2,8-diazaspiro[4.5]decane-3-carboxylate]
- Efficacy (statistical significance of reduction of mucosal 5-HT concentrations relative to vehicle) [1, 3]: *** (*** refers to P<0.005)

Molecule: CCOC(=O)[C@@H]1CC2(CCN(c3cc(O[C@H](c4ccc(Cl)cc4-c4cccc(F)c4)C(F)(F)F)nc(N)n3)CC2)CN1 [Example 63ev, (S)-ethyl 8-(2-amino-6-((R)-1-(5-chloro-3′-fluoro-[1,1′-biphenyl]-2-yl)-2,2,2-trifluoroethoxy)pyrimidin-4-yl)-2,8-diazaspiro[4.5]decane-3-carboxylate]
- Efficacy (statistical significance of reduction of mucosal 5-HT concentrations relative to vehicle) [1, 3]: *** (*** refers to P<0.005)

Molecule: CCOC(=O)[C@@H]1CC2(CCN(c3cc(O[C@H](c4ccc(Cl)cc4-c4cc(F)cc(F)c4)C(F)(F)F)nc(N)n3)CC2)CN1 [Example 63ey, (S)-ethyl 8-(2-amino-6-((R)-1-(5-chloro-3′,5′-difluoro-[1,1′-biphenyl]-2-yl)-2,2,2-trifluoroethoxy)pyrimidin-4-yl)-2,8-diazaspiro[4.5]decane-3-carboxylate]
- Efficacy (statistical significance of reduction of mucosal 5-HT concentrations relative to vehicle) [1, 3]: ** (** refers to P<0.01)

Molecule: CCOC(=O)[C@@H]1CC2(CCN(c3cc(O[C@H](c4ccc(Cl)cc4-c4cccnc4)C(F)(F)F)nc(N)n3)CC2)CN1 [Example 63fo, (S)-ethyl 8-(2-amino-6-((R)-1-(4-chloro-2-(pyridin-3-yl)phenyl)-2,2,2-trifluoroethoxy)pyrimidin-4-yl)-2,8-diazaspiro[4.5]decane-3-carboxylate]
- Efficacy (statistical significance of reduction of mucosal 5-HT concentrations relative to vehicle) [1, 3]: * (* refers to P<0.05)

Molecule: CCOC(=O)[C@@H]1CC2(CCN(c3cc(O[C@H](c4ccc(-c5ccc(OC)cc5)cc4-n4ccc(C)n4)C(F)(F)F)nc(N)n3)CC2)CN1 [Example 63ha, (S)-ethyl 8-(2-amino-6-((R)-2,2,2-trifluoro-1-(4′-methoxy-3-(3-methyl-1H-pyrazol-1-yl)-[1,1′-biphenyl]-4-yl)ethoxy)pyrimidin-4-yl)-2,8-diazaspiro[4.5]decane-3-carboxylate]
- Efficacy (statistical significance of reduction of mucosal 5-HT concentrations relative to vehicle) [1, 3]: ** (** refers to P<0.01)

Molecule: CCOC(=O)[C@@H]1CC2(CCN(c3cc(O[C@H](c4ccc(Cl)cc4-c4ccccc4)C(F)(F)F)nc(N)n3)CC2)CN1 [Example 63i, (S)-ethyl 8-(2-amino-6-((R)-1-(5-chloro-[1,1′-biphenyl]-2-yl)-2,2,2-trifluoroethoxy)pyrimidin-4-yl)-2,8-diazaspiro[4.5]decane-3-carboxylate]
- Efficacy (statistical significance of reduction of mucosal 5-HT concentrations relative to vehicle) [1, 3]: *** (*** refers to P<0.005)

Molecule: CC(C)OC(=O)[C@@H]1CC2(CCN(c3cc(O[C@H](c4ccc(Cl)cc4-c4ccccc4)C(F)(F)F)nc(N)n3)CC2)CN1 [Example 69a, (S)-isopropyl 8-(2-amino-6-((R)-1-(5-chloro-[1,1′-biphenyl]-2-yl)-2,2,2-trifluoroethoxy)pyrimidin-4-yl)-2,8-diazaspiro[4.5]decane-3-carboxylate]
- Efficacy (statistical significance of reduction of mucosal 5-HT concentrations relative to vehicle) [1, 3]: *** (*** refers to P<0.005)

Molecule: CCCOC(=O)[C@@H]1CC2(CCN(c3cc(O[C@H](c4ccc(Cl)cc4-c4ccccc4)C(F)(F)F)nc(N)n3)CC2)CN1 [Example 69c, (S)-propyl 8-(2-amino-6-((R)-1-(5-chloro-[1,1′-biphenyl]-2-yl)-2,2,2-trifluoroethoxy)pyrimidin-4-yl)-2,8-diazaspiro[4.5]decane-3-carboxylate]
- Efficacy (statistical significance of reduction of mucosal 5-HT concentrations relative to vehicle) [1, 3]: *** (*** refers to P<0.005)

Molecule: (S)-cyclopentyl 8-(2-amino-6-((R)-1-(4′-chloro-3-(3- methyl-1H-pyrazol-1-yl)-[1,1′-biphenyl]-4-yl)-2,2,2- trifluoroethoxy)pyrimidin-4-yl)-2,8- diazaspiro[4.5]decane-3-carboxylate [Example 69b]
- Efficacy (statistical significance of reduction of mucosal 5-HT concentrations relative to vehicle) ([1]; (title)): *** (*** refers to P<0.005)

— US11759462B2, “Spirocyclic compounds as tryptophan hydroxylase inhibitors” (priority 2013, dated 2023)
